Measurements: ChEMBL document CHEMBL4680263, “Identification of benzothiazinones containing 2-benzyl-2,7-diazaspiro[3.5]nonane moieties as new antitubercular agents” (Eur J Med Chem, 2020)

Assays:
[1] = system: Mycobacterium tuberculosis; assay: Antimycobacterial activity against multidrug resistance Mycobacterium tuberculosis 16995 clinical isolate assessed as inhibition of bacterial growth incubated for 7 days by MABA assay; format: functional; details: Mycobacterium tuberculosis, 16995, 168 h; time 7 day
[2] = system: Mycobacterium tuberculosis; assay: Antimycobacterial activity against multidrug resistance Mycobacterium tuberculosis 16883 clinical isolate assessed as inhibition of bacterial growth incubated for 7 days by MABA assay; format: functional; details: Mycobacterium tuberculosis, 16883, 168 h; time 7 day

CC(c1ccc(Cl)cc1)N1CC2(CCN(c3nc(=O)c4cc(C(F)(F)F)cc([N+](=O)[O-])c4s3)CC2)C1 (centres undefined)
MIC [1]: < 0.016 µg/mL | MIC [2]: < 0.016 µg/mL

CC(c1ccc(Br)cc1)N1CC2(CCN(c3nc(=O)c4cc(C(F)(F)F)cc([N+](=O)[O-])c4s3)CC2)C1 (centres undefined)
MIC [1]: < 0.016 µg/mL | MIC [2]: < 0.016 µg/mL

CC(c1cc(F)cc(F)c1)N1CC2(CCN(c3nc(=O)c4cc(C(F)(F)F)cc([N+](=O)[O-])c4s3)CC2)C1 (centres undefined)
MIC [1]: < 0.016 µg/mL | MIC [2]: < 0.016 µg/mL

O=c1nc(N2CCC3(CC2)CN(Cc2cc(F)cc(F)c2)C3)sc2c([N+](=O)[O-])cc(C(F)(F)F)cc12
MIC [1]: < 0.016 µg/mL | MIC [2]: < 0.016 µg/mL

CC(c1cccc(F)c1)N1CC2(CCN(c3nc(=O)c4cc(C(F)(F)F)cc([N+](=O)[O-])c4s3)CC2)C1 (centres undefined)
MIC [1]: < 0.016 µg/mL | MIC [2]: < 0.016 µg/mL

O=c1nc(N2CCC3(CC2)CN(Cc2ccc(C(F)(F)F)cc2)C3)sc2c([N+](=O)[O-])cc(C(F)(F)F)cc12
MIC [1]: < 0.016 µg/mL | MIC [2]: < 0.016 µg/mL

CC(c1ccc(F)c(F)c1)N1CC2(CCN(c3nc(=O)c4cc(C(F)(F)F)cc([N+](=O)[O-])c4s3)CC2)C1 (centres undefined)
MIC [1]: < 0.016 µg/mL | MIC [2]: < 0.016 µg/mL

CC(c1ccc(F)cc1)N1CC2(CCN(c3nc(=O)c4cc(C(F)(F)F)cc([N+](=O)[O-])c4s3)CC2)C1 (centres undefined)
MIC [1]: < 0.016 µg/mL | MIC [2]: < 0.016 µg/mL

CC(c1ccc(Cl)c(F)c1)N1CC2(CCN(c3nc(=O)c4cc(C(F)(F)F)cc([N+](=O)[O-])c4s3)CC2)C1 (centres undefined)
MIC [1]: < 0.016 µg/mL | MIC [2]: < 0.016 µg/mL

CC(c1cc(F)c(F)c(F)c1)N1CC2(CCN(c3nc(=O)c4cc(C(F)(F)F)cc([N+](=O)[O-])c4s3)CC2)C1 (centres undefined)
MIC [1]: < 0.016 µg/mL | MIC [2]: < 0.016 µg/mL

O=c1nc(N2CCC3(CC2)CN(Cc2ccc(F)cc2)C3)sc2c([N+](=O)[O-])cc(C(F)(F)F)cc12
MIC [1]: < 0.016 µg/mL | MIC [2]: < 0.016 µg/mL

O=c1nc(N2CCC3(CC2)CN(Cc2cccc(F)c2)C3)sc2c([N+](=O)[O-])cc(C(F)(F)F)cc12
MIC [1]: < 0.016 µg/mL | MIC [2]: < 0.016 µg/mL

CC(c1ccc(OC(F)(F)F)cc1)N1CCC2(CC1)CN(c1nc(=O)c3cc(C(F)(F)F)cc([N+](=O)[O-])c3s1)C2 (centres undefined)
MIC [1]: < 0.016 µg/mL | MIC [2]: < 0.016 µg/mL

CC(c1ccc(F)c(Cl)c1)N1CC2(CCN(c3nc(=O)c4cc(C(F)(F)F)cc([N+](=O)[O-])c4s3)CC2)C1 (centres undefined)
MIC [1]: < 0.016 µg/mL | MIC [2]: < 0.016 µg/mL

CC(c1ccc(OC(F)(F)F)cc1)N1CC2(CCN(c3nc(=O)c4cc(C(F)(F)F)cc([N+](=O)[O-])c4s3)CC2)C1 (centres undefined)
MIC [1]: < 0.016 µg/mL | MIC [2]: < 0.016 µg/mL

O=c1nc(N2CCC3(CC2)CN(Cc2ccc(OC(F)(F)F)cc2)C3)sc2c([N+](=O)[O-])cc(C(F)(F)F)cc12
MIC [1]: < 0.016 µg/mL | MIC [2]: < 0.016 µg/mL

CC(c1ccc(F)cc1F)N1CC2(CCN(c3nc(=O)c4cc(C(F)(F)F)cc([N+](=O)[O-])c4s3)CC2)C1 (centres undefined)
MIC [1]: < 0.016 µg/mL | MIC [2]: < 0.016 µg/mL

CC(c1ccc(C(F)(F)F)cc1)N1CC2(CCN(c3nc(=O)c4cc(C(F)(F)F)cc([N+](=O)[O-])c4s3)CC2)C1 (centres undefined)
MIC [1]: < 0.016 µg/mL | MIC [2]: < 0.016 µg/mL

O=c1nc(N2CCC3(CC2)CN(Cc2ccc(Br)cc2)C3)sc2c([N+](=O)[O-])cc(C(F)(F)F)cc12
MIC [1]: < 0.016 µg/mL | MIC [2]: < 0.016 µg/mL

NNC(=O)c1ccncc1 [ISONIAZID]
MIC [1]: > 10 µg/mL | MIC [2]: > 10 µg/mL

O=c1nc(N2CCN(CC3CCCCC3)CC2)sc2c([N+](=O)[O-])cc(C(F)(F)F)cc12 [MACOZINONE]
MIC [1]: < 0.016 µg/mL | MIC [2]: < 0.016 µg/mL

CO[C@H]1/C=C/O[C@@]2(C)Oc3c(C)c(O)c4c(O)c(c(/C=N/N5CCN(C)CC5)c(O)c4c3C2=O)NC(=O)/C(C)=C\C=C\[C@H](C)[C@H](O)[C@@H](C)[C@@H](O)[C@@H](C)[C@H](OC(C)=O)[C@@H]1C [RIFAMPIN]
MIC [1]: > 10 µg/mL | MIC [2]: > 10 µg/mL
